Laboratory results taken from patent US20220133747A1, “ESTROGEN RECEPTOR INHIBITORS AND USES THEROF” (The Regents of the University of California, priority 2018, published 2022).

Columns and labels:
[1] = tested on: ER-dependent transcription; assay: ERE-luciferase T47D reporter, ER-dependent transcriptional activity; assay type: cell-based, human; settings: E2 alone, 2 nM
Procedure: (§1) FIGS. 20A-20C show biologic activity of selected SERD candidates. […] ER-positive MCF-7 cells were treated in phenol-red free RPMI 1640 without FBS and containing vehicle control (CON) or 100 nM concentrations of either fulvestrant (FX) or antiestrogens 105, 109, 121, 140, 151, 160 or SERD128 in vitro. After 4 hours, cells were harvested and processed for PAGE and Western immunoblots using ERα antibody (1D5, Thermofisher Scientific). RPL13A was used as a loading control. […] Cells were dosed with either E2 alone or with SERDs combined with E2 in phenol redfree medium with 0.1% dextran-coated charcoal-treated FBS in luminometer plates. Data are presented as relative light units (RLU) relative to that of E2 alone in three replicate assays (4 wells per replicate) f SEM. Treatment with E2 alone induced a 12-fold induction of ER-dependent luciferase activity quantified as RLU relative to vehicle control-treated samples.
A stable ER-positive T47D ERE luciferase reporter cell line, in which the ERE and the reporter luciferase gene are consistently expressed in the cell line were used in this study (Signosis). […] Lysate was mixed 1:1 with luciferase substrate (Promega), and luminescence was measured using a MLX microtiter plate luminometer (Dynex) and quantified as relative light units (RLU) according to established procedures. Total protein was quantified using BioRad Protein Assay (BioRad).

ER+ early breast cancer = settings: cited from earlier work
ERα = target: T1, ERα (Homo sapiens, UniProt P03372); assay: Downregulation of ER protein, PAGE and Western immunoblot in MCF-7 cells; assay type: cell-based; settings: 100 nM, 4 hours, phenol-red free medium without FBS
T1 construct: endogenous in cells; host or cells: MCF-7 human breast cancer cells (ATCC)
T1 sequence (P03372 1-595): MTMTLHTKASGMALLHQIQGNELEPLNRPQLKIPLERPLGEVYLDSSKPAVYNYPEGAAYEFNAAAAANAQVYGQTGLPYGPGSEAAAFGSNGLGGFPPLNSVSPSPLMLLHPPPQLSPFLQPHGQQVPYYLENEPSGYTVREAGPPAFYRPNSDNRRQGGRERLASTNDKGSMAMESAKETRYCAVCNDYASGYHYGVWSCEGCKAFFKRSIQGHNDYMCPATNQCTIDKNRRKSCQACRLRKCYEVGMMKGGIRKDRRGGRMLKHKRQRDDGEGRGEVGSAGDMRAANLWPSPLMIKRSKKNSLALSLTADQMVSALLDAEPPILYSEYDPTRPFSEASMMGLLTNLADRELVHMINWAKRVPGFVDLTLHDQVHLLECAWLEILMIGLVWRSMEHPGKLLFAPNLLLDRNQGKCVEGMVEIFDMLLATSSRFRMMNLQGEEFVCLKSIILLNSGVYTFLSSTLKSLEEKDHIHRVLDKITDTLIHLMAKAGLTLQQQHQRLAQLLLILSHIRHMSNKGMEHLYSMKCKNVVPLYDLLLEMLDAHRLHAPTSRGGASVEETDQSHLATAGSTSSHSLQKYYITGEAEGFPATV
Procedure: as §1
MCF7 cells were plated in regular medium. After 24 hrs, cells were incubated in the presence of antiestrogens or fulvestrant for 4 hrs in phenol-red free medium without FBS. Cell lysates were prepared using RIPA buffer, and protein concentration was determined using the BCA Protein Assay Kit (PIERCE/ThermoFisher Scientific). Forty micrograms of total cell protein was resolved by 4-15% SDS-PAGE, transferred to a PVDF membrane and probed with antibody directed against ERα (1D5, 1:100, ThermoFisher cat #MA5-13191). RPL13A (dilution 1:1000, Invitrogen/ThermoFisher cat #PA5-58528) was used as loading control.

C[C@]12CC[C@@H]3c4ccc(O)cc4CC[C@H]3[C@@H]1CC[C@@H]2O [E2, estradiol-17β, reference compound]
induction of ER-dependent luciferase activity (RLU relative to vehicle control) [1]: 12 fold

CC/C(=C(\c1ccccc1)c1ccc(OCCN(C)C)cc1)c1ccccc1 [Tamoxifen]
reduction in disease recurrence (ER+ early breast cancer): 39%
reduction in mortality (ER+ early breast cancer): 31%

C[C@]12C[C@H](Oc3ccc(NC(=O)CCCCN4CCCCC4)c(F)c3)[C@@H]3c4ccc(O)cc4CC[C@H]3[C@@H]1CC[C@@H]2O [SERD140, N-(4-(((8S,9S,11S,13S,14S,17S)-3,17-Dihydroxy-13-methyl-7,8,9,11,12,13,14,15,16,17-deca-hydro-6H-cyclopenta[a]phenanthren-11-yl)oxy)-2-fluorophenyl)-5-(piperidin-1-yl)pentan-amide]
downregulation of ER protein (ERα protein levels) (ERα): most effective in reducing ER protein levels
